Reference: patent publication US20090304692A1, “TRIAZINE COMPOUNDS AS PI3 KINASE AND MTOR INHIBITORS” (Wyeth, priority 2008, published 2009)
“And” between values parts separate entries of the source, which are not always exact repeats. Equal values may be shown once. Where a name gives a salt, the structure may show the parent alone. Read-outs that look alike come from different tables or passages of the source.

Key:
Human mTOR (FLAG-TOR) = Human mTOR (FLAG-TOR) (Homo sapiens, UniProt P42345); assay: mTOR kinase assay (DELFIA format, purified enzyme); assay type: biochemical
[1] = system: human breast MDA-MB-361 tumor cell line; assay: In vitro cell culture growth assay (MTS), MDA-MB-361; assay type: cell-based; details: Homo sapiens, MDA-MB-361, 72 h; MTS cell growth assay, three days after drug treatment; read-out: IC50 MDA-MB-361
[2] = system: human prostate PC3-mm2 tumor cell line; assay: In vitro cell culture growth assay (MTS), PC3-mm2; assay type: cell-based; details: Homo sapiens, PC3MM2, 72 h
PI3K-α = PI3K-α (Homo sapiens, UniProt P42336); assay: PI3K-alpha fluorescence polarization assay; details: read-out: IC50 PI3Kα
PI3K-γ = PI3K-γ (Homo sapiens, UniProt P48736); assay: PI3K-gamma fluorescence polarization assay; details: read-out: IC50 PI3Kγ
[3] = read-out: IC50 PC3-mm2, MTS cell growth assay, three days after drug treatment
[4] = MTS cell growth assay, three days after drug treatment, read-out: IC50 PC3-mm2
[5] = MTS cell growth assay, three days after drug treatment, PC3-mm2 cells, read-out: IC50 PC3-mm2

Chain of PI3K-γ (P48736 whole entry, species assumed): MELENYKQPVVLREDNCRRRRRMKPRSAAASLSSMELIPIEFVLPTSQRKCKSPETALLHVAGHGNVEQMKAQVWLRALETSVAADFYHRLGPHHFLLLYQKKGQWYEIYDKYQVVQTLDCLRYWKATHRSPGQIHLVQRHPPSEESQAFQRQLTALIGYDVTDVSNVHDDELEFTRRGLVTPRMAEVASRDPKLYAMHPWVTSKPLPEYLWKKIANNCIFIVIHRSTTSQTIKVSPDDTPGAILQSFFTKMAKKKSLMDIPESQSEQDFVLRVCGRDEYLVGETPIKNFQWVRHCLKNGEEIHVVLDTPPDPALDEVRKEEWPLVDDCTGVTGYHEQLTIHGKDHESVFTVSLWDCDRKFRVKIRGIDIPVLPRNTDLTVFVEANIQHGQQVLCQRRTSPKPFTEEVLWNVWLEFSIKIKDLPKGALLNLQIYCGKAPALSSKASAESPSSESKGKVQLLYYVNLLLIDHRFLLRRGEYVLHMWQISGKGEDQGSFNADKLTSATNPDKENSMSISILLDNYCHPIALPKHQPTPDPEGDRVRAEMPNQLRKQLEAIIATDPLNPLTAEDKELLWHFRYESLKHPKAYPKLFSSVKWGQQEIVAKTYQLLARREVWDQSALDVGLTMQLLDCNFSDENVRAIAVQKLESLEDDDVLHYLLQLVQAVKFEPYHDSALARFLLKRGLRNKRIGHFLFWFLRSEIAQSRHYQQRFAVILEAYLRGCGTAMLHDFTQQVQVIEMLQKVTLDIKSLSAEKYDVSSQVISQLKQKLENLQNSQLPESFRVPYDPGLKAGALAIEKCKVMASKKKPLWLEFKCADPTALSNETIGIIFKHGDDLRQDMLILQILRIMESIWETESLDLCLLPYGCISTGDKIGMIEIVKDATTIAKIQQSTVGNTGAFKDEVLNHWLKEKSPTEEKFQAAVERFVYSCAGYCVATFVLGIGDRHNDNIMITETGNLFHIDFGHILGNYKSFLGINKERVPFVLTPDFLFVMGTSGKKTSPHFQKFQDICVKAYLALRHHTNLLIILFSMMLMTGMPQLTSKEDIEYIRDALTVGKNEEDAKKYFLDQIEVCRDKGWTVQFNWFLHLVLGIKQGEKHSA
Chain of Human mTOR (FLAG-TOR) (P42345 1360-2549 limits assumed): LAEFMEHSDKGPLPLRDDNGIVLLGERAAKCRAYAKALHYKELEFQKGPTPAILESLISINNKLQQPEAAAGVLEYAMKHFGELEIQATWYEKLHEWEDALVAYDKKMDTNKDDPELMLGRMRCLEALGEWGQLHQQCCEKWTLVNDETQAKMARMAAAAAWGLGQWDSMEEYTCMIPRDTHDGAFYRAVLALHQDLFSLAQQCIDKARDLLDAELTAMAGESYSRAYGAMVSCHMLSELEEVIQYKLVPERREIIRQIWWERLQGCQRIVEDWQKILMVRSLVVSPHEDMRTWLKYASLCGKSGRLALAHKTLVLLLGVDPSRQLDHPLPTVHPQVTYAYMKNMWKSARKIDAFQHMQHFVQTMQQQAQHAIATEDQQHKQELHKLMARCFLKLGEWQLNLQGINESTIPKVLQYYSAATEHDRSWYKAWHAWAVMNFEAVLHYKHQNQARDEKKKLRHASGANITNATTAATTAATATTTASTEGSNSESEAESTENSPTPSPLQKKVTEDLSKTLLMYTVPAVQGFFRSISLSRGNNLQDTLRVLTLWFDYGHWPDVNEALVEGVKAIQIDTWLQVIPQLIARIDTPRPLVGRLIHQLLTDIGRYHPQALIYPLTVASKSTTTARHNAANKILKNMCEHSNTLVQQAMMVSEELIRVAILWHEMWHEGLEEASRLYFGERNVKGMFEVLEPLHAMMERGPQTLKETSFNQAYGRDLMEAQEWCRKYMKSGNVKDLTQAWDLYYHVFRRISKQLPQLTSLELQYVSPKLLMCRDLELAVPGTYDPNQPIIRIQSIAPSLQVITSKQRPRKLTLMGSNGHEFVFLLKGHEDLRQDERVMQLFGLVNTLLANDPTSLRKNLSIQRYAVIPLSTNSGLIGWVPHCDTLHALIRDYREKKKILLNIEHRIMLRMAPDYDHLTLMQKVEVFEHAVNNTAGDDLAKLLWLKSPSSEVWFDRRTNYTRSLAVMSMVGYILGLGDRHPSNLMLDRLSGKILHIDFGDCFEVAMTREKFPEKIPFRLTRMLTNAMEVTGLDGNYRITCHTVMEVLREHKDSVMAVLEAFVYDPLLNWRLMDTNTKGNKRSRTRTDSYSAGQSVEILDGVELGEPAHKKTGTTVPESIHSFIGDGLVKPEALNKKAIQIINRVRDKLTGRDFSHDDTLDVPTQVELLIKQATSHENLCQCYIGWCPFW
Chain of PI3K-α (P42336 whole entry, species assumed): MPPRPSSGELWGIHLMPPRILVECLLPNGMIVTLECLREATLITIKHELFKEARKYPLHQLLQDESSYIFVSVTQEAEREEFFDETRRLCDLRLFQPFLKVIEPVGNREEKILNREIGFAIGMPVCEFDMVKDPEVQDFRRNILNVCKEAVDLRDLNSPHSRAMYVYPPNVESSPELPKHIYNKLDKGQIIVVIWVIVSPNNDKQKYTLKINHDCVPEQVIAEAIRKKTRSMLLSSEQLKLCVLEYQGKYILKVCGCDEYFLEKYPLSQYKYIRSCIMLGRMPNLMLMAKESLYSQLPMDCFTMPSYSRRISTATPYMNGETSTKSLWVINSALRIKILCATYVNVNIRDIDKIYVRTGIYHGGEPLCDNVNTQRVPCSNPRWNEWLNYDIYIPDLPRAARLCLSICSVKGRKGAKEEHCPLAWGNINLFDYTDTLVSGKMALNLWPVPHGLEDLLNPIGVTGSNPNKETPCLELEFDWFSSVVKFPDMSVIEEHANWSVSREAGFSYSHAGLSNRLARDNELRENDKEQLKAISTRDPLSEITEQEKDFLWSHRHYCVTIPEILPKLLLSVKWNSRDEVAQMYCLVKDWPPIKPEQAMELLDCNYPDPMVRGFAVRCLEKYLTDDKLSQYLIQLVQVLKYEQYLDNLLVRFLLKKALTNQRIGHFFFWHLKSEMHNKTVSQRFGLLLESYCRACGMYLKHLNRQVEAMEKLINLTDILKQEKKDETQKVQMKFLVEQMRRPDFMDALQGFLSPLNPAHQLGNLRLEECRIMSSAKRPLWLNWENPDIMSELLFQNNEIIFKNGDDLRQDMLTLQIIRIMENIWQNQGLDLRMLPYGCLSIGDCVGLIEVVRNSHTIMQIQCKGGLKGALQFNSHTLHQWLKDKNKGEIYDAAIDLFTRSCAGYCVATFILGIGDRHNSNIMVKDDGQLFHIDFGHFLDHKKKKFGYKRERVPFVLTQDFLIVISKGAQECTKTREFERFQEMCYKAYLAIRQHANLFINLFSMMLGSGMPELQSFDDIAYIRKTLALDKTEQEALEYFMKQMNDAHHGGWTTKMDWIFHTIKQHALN
Chain of PI3K-α (P27986 whole entry partner, species assumed): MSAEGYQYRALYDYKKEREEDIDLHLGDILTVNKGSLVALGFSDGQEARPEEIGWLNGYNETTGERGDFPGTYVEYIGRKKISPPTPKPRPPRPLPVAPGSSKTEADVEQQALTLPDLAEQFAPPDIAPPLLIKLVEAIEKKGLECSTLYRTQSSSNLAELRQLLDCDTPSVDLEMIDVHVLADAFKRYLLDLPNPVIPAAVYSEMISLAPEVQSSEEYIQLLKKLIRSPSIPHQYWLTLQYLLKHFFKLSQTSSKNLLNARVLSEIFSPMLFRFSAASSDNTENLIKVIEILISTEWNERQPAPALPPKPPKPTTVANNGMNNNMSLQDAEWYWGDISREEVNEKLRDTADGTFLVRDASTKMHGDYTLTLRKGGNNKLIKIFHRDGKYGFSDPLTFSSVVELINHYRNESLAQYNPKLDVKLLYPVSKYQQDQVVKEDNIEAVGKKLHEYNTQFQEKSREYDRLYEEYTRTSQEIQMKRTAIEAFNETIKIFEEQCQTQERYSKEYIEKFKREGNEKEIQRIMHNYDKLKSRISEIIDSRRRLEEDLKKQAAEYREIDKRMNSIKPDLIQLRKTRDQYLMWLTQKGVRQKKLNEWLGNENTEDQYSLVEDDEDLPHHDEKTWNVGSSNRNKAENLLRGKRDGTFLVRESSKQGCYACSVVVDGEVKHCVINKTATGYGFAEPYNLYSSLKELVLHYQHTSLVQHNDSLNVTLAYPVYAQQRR

| SMILES | IC50 (Human mTOR (FLAG-TOR); read-out: IC50 mTOR) | IC50 [1] | IC50 [2, 3] | IC50 (PI3K-α) | IC50 (PI3K-γ) | IC50 [2, 4] | IC50 (Human mTOR (FLAG-TOR); IC50 mTOR) | IC50 (PI3K-α; listed as 179) | IC50 (PI3K-γ; listed as 179) | IC50 [2, 5] | IC50 (PI3K-α; listed as 705) | IC50 (PI3K-α; listed as 706) | IC50 (PI3K-γ; listed as 707) | IC50 (PI3K-α; listed as 708) | IC50 (PI3K-γ; listed as 708) |
| --- | --- | --- | --- | --- | --- | --- | --- | --- | --- | --- | --- | --- | --- | --- | --- |
| O=C(Nc1ccc(C(=O)NC2CN3CCC2CC3)cc1)Nc1ccc(-c2nc(N3CCOCC3)nc(N3CCOCC3)n2)cc1 (centres unmarked) [Example 73, 4-(3-(4-(4,6-dimorpholino-1,3,5-triazin-2-yl)phenyl)ureido)-N-(quinuclidin-3-yl)benzamide] | 0.77 nM | 30 nM |  | 0.3 nM | 7 nM | 107 nM |  |  |  |  |  |  |  |  |  |
| Cc1cc(NC(=O)Nc2ccc(-c3nc(N4CCOCC4)nc(N4CCOC[C@@H]4C)n3)cc2)ccn1 [Example 92, 1-(4-{4-[(3S)-3-methylmorpholin-4-yl]-6-morpholin-4-yl-1,3,5-triazin-2-yl}phenyl)-3-(2-methylpyridin-4-yl)urea] | 2.35 nM | 140 nM |  | 11 nM | 92 nM | 87 nM |  |  |  |  |  |  |  |  |  |
| CC(O)c1ccc(NC(=O)Nc2ccc(-c3nc(N4CCOCC4)nc(N4CCOC[C@@H]4C)n3)cc2)cc1 (stereo partly drawn) [Example 93, 1-[4-(1-hydroxyethyl)phenyl]-3-(4-{4-[(3S)-3-methylmorpholin-4-yl]-6-morpholin-4-yl-1,3,5-triazin-2-yl}phenyl)urea] | 8.55 nM | 42 nM |  | 12 nM | 133 nM | 60 nM |  |  |  |  |  |  |  |  |  |
| CC(C)Oc1nc(-c2ccc(NC(=O)Nc3ccncc3)cc2)nc(N2CCOCC2)n1 [Example 94, 1-[4-(4-isopropoxy-6-morpholin-4-yl-1,3,5-triazin-2-yl)phenyl]-3-pyridin-4-ylurea] | 1 nM | 54 nM |  | 5 nM | 56 nM | 82 nM |  |  |  |  |  |  |  |  |  |
| COC(=O)c1ccc(NC(=O)Nc2ccc(-c3nc(OC(C)C)nc(N4CCOCC4)n3)cc2)cc1 [Example 95, methyl 4-({[4-(4-isopropoxy-6-morpholin-4-yl-1,3,5-triazin-2-yl)phenyl]carbamoyl}amino)benzoate] | 2.75 nM | 333 nM |  | 48 nM | 101 nM | 364 nM |  |  |  |  |  |  |  |  |  |
| O=C(Nc1ccncc1)Nc1ccc(-c2nc(C3=CCOCC3)nc(N3CCOCC3)n2)cc1 [Example 100, 1-{4-[4-(3,6-Dihydro-2H-pyran-4-yl)-6-morpholin-4-yl-[1,3,5]triazin-2-yl]-phenyl}-3-pyridin-4-yl-urea] | 3.5 nM | 56 nM |  | 5 nM | 38 nM | 56 nM |  |  |  |  |  |  |  |  |  |
| CN1C2CCC1CC(Oc1nc(-c3ccc(NC(=O)Nc4ccncc4)cc3)nc(N3CCOCC3)n1)C2 (centres unmarked) [Example 102, 1-{4-[4-(8-methyl-8-aza-bicyclo[3.2.1]oct-3-yloxy)-6-morpholin-4-yl-[1,3,5]triazin-2-yl]-phenyl}-3-pyridin-4-yl-urea] | 6.1 nM | 592 nM |  | 6 nM | 84 nM | 854 nM |  |  |  |  |  |  |  |  |  |
| CC(C)(C)OC(=O)N1CC(CNc2nc(-c3ccc(NC(=O)Nc4ccncc4)cc3)nc(N3CCOCC3)n2)C1 [Example 104, 3-({4-Morpholin-4-yl-6-[4-(3-pyridin-4-yl-ureido)-phenyl]-[1,3,5]triazin-2-ylamino}-methyl)-azetidine-1-carboxylic acid tert-butyl ester] | 15 nM | 412 nM |  | 19 nM | 234 nM | 684 nM |  |  |  |  |  |  |  |  |  |
| O=C(Nc1ccncc1)Nc1ccc(-c2nc(NCC3CNC3)nc(N3CCOCC3)n2)cc1 [Example 105, 1-(4-{4-[(azetidin-3-ylmethyl)-amino]-6-morpholin-4-yl-[1,3,5]triazin-2-yl}-phenyl)-3-pyridin-4-yl-urea] | 30.5 nM | 3710 nM |  | 14 nM | 112 nM | > 10000 nM |  |  |  |  |  |  |  |  |  |
| O=C(Nc1ccncc1)Nc1ccc(-c2nc(N3CCOCC3)nc(N3CCC4(CC3)OCCO4)n2)cc1 [Example 130, 1-{4-[4-(1,4-dioxa-8-azaspiro[4.5]dec-8-yl)-6-morpholin-4-yl-1,3,5-triazin-2-yl]phenyl}-3-pyridin-4-ylurea] | 8 nM and 12.4 nM | 191 nM |  | 14 nM | 132 nM | 416 nM |  |  |  | 416 nM | 13.5 nM |  |  |  |  |
| O=C(Nc1ccc(-c2nc(N3CCOCC3)nc(N3CCC4(CC3)OCCO4)n2)cc1)Nc1cccnc1 [Example 131, 1-{4-[4-(1,4-dioxa-8-azaspiro[4.5]dec-8-yl)-6-morpholin-4-yl-1,3,5-triazin-2-yl]phenyl}-3-pyridin-3-ylurea] | 14.5 nM | 696 nM |  | 25 nM | 336 nM | 839 nM |  |  |  | 839 nM |  | 25.5 nM |  |  |  |
| O=C(Nc1ccccc1)Nc1ccc(-c2nc(N3CCOCC3)nc(N3CCC4(CC3)OCCO4)n2)cc1 [Example 132, 1-{4-[4-(1,4-dioxa-8-azaspiro[4.5]dec-8-yl)-6-morpholin-4-yl-1,3,5-triazin-2-yl]phenyl}-3-phenylurea] | 26 nM and 34 nM | 586 nM |  | 14 nM | 234 nM | 1010 nM |  |  |  | 1010 nM |  |  | 234 nM |  |  |
| CN(C)c1ccc(NC(=O)Nc2ccc(-c3nc(N4CCOCC4)nc(N4CCC5(CC4)OCCO5)n3)cc2)cc1 [Example 133, 1-[4-(dimethylamino)phenyl]-3-{4-[4-(1,4-dioxa-8-azaspiro[4.5]dec-8-yl)-6-morpholin-4-yl-1,3,5-triazin-2-yl]phenyl}urea] | 43 nM | 795 nM |  | 39 nM | 8890 nM | 1950 nM |  |  |  | 1950 nM |  |  |  | 39.5 nM | 8890 nM |

Further lines, results first:

| IC50 (Human mTOR (FLAG-TOR); read-out: IC50 mTOR) | IC50 [1] | IC50 [2, 3] | IC50 (PI3K-α) | IC50 (PI3K-γ) | IC50 [2, 4] | IC50 (Human mTOR (FLAG-TOR); IC50 mTOR) | IC50 (PI3K-α; listed as 179) | IC50 (PI3K-γ; listed as 179) | IC50 [2, 5] | IC50 (PI3K-α; listed as 705) | IC50 (PI3K-α; listed as 706) | IC50 (PI3K-γ; listed as 707) | IC50 (PI3K-α; listed as 708) | IC50 (PI3K-γ; listed as 708) | SMILES |
| --- | --- | --- | --- | --- | --- | --- | --- | --- | --- | --- | --- | --- | --- | --- | --- |
| 0.57 nM | < 3 nM | 11 nM | 0.3 nM | 7 nM |  |  |  |  |  |  |  |  |  |  | CN(C)CCNC(=O)c1ccc(NC(=O)Nc2ccc(-c3nc(N4CCOCC4)nc(N4CCOCC4)n3)cc2)cc1 [Example 68, N-(2-(dimethylamino)ethyl)-4-(3-(4-(4,6-dimorpholino-1,3,5-triazin-2-yl)phenyl)ureido)benzamide] |
| 0.85 nM | 10 nM |  | 0.4 nM | 8 nM | 13 nM |  |  |  |  |  |  |  |  |  | CN1CCN(C(=O)c2ccc(NC(=O)Nc3ccc(-c4nc(N5CCOCC5)nc(N5CCOCC5)n4)cc3)cc2)CC1 [Example 69, 1-(4-(4,6-dimorpholino-1,3,5-triazin-2-yl)phenyl)-3-(4-(4-methylpiperazine-1-carbonyl)phenyl)urea hydrochloride] |
|  | < 9.8 nM |  | 0.4 nM | 8 nM | 18.3 nM | 0.67 nM |  |  |  |  |  |  |  |  | CN(C)CCN(C)C(=O)c1ccc(NC(=O)Nc2ccc(-c3nc(N4CCOCC4)nc(N4CCOCC4)n3)cc2)cc1 [Example 71, N-(2-(dimethylamino)ethyl)-4-(3-(4-(4,6-dimorpholino-1,3,5-triazin-2-yl)phenyl)ureido)-N-methylbenzamide hydrochloride] |
| 0.85 nM | 1 nM |  | 2 nM | 19 nM | 13 nM |  |  |  |  |  |  |  |  |  | O=C(Nc1ccc(C(=O)N2CCC(N3CCOCC3)CC2)cc1)Nc1ccc(-c2nc(N3CCOCC3)nc(N3CCOCC3)n2)cc1 [Example 72, 1-(4-(4,6-dimorpholino-1,3,5-triazin-2-yl)phenyl)-3-(4-(4-morpholinopiperidine-1-carbonyl)phenyl)urea] |
| 1 nM and 0.63 nM | < 3 nM |  | 0.4 nM | 8 nM | 8.33 nM |  | 1 nM | 13 nM |  |  |  |  |  |  | O=C(Nc1ccc(C(=O)N2CCC(N3CCCC3)CC2)cc1)Nc1ccc(-c2nc(N3CCOCC3)nc(N3CCOCC3)n2)cc1 [Example 74, 1-(4-(4,6-dimorpholino-1,3,5-triazin-2-yl)phenyl)-3-(4-(4-(pyrrolidin-1-yl)piperidine-1-carbonyl)phenyl)urea] |
| 0.75 nM | < 3 nM | 7 nM | 0.6 nM | 10 nM |  |  |  |  |  |  |  |  |  |  | O=C(Nc1ccc(C(=O)N2CCC(N3CCCCC3)CC2)cc1)Nc1ccc(-c2nc(N3CCOCC3)nc(N3CCOCC3)n2)cc1 [Example 75, 1-(4-(1,4′-bipiperidine-1′-carbonyl)phenyl)-3-(4-(4,6-dimorpholino-1,3,5-triazin-2-yl)phenyl)urea] |
| 0.68 nM | < 30 nM |  | 0.3 nM | 4 nM | < 30 nM |  |  |  |  |  |  |  |  |  | O=C(Nc1ccc(C(=O)N2CCNCC2)cc1)Nc1ccc(-c2nc(N3CCOCC3)nc(N3CCOCC3)n2)cc1 [Example 77, 1-(4-(4,6-dimorpholino-1,3,5-triazin-2-yl)phenyl)-3-(4-(piperazine-1-carbonyl)phenyl)urea] |
| 1.6 nM | 30 nM |  | 10 nM | 31 nM | 47 nM |  |  |  |  |  |  |  |  |  | C[C@H]1COCCN1c1nc(-c2ccc(NC(=O)Nc3ccncc3)cc2)nc(N2CCOCC2)n1 [Example 89, 1-(4-{4-[(3S)-3-methylmorpholin-4-yl]-6-morpholin-4-yl-1,3,5-triazin-2-yl}phenyl)-3-pyridin-4-ylurea] |
